Data taken from ChEMBL document CHEMBL1201862, “PubChem BioAssay data set” (2004).
Several values for one entry are separate records, joined by “and”; a condition that tells them apart may be missing. Equal entries are not always repeated.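 All cell lines were grown in 96-well plates and treated with compound for 48 hours. The concentration for 50% growth inhibition is given as GI50.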 Activity calls are given as the source filed them. Rule as the data show it: active = GI50 up to about 1.1 µM and inactive = higher.

Key:
Experiment in all cases: NCI tumour cell line growth inhibition, 48 h
[1] = system: A549
[2] = system: ACHN
[3] = system: NCI-H460
[4] = system: UO-31
[5] = system: A498
[6] = system: OVCAR-4
[7] = system: SN12C
[8] = system: OVCAR-8
[9] = system: SK-MEL-5
[10] = system: SK-MEL-28
[11] = system: MDA-MB-231
[12] = system: NCI-H226
[13] = system: IGROV-1
[14] = system: COLO 205
[15] = system: DU-145
[16] = system: RXF 393
[17] = system: UACC-257
[18] = system: HCT-15
[19] = system: T47D
[20] = system: HOP-62

| Structure (SMILES) | GI50 [1] | GI50 [2] | GI50 [3] | GI50 [4] | GI50 [5] | GI50 [6] | GI50 [7] | GI50 [8] | GI50 [9] | GI50 [10] | GI50 [11] | GI50 [12] | GI50 [13] | GI50 [14] | GI50 [15] | GI50 [16] | GI50 [17] | GI50 [18] [µM] | GI50 [19] | GI50 [20] |
| --- | --- | --- | --- | --- | --- | --- | --- | --- | --- | --- | --- | --- | --- | --- | --- | --- | --- | --- | --- | --- |
| O=C1N/C(=N/N=C\C(O)C(O)C(O)CO)N/C1=C/c1ccc(Cl)cc1 (stereo not given) | 71.8 µM (inactive) | 18.1 µM (inactive) and 17.8 µM (inactive) | 33.9 µM (inactive) | 28.8 µM (inactive) and 31.7 µM (inactive) | 49.7 µM (inactive) and 39.8 µM (inactive) | 20.7 µM (inactive) | 69 µM (inactive) and 80.5 µM (inactive) | 44.1 µM (inactive) and 27.7 µM (inactive) | 32 µM (inactive) and 46.6 µM (inactive) | > 100 µM (inactive) and 64.6 µM (inactive) | 58.5 µM (inactive) and 44.6 µM (inactive) | 21 µM (inactive) and 22.2 µM (inactive) | 30.6 µM (inactive) and 32.9 µM (inactive) | 42.6 µM (inactive) and 30.1 µM (inactive) | 44.8 µM (inactive) and 70.5 µM (inactive) | 92 µM (inactive) | > 100 µM (inactive) | 20.6 | 34.1 µM (inactive) and 21.9 µM (inactive) | 46.2 µM (inactive) and 40.3 µM (inactive) |
| COC(=O)/C(=N/NC(N)=O)C(C(=O)C(=O)Nc1ccc(C)cc1)c1nc2ccc(C(=O)c3ccccc3)cc2nc1O (stereo not given) | > 100 µM (inactive) | > 100 µM (inactive) | > 100 µM (inactive) | 30.5 µM (inactive) | 18.9 µM (inactive) | > 100 µM (inactive) | > 100 µM (inactive) | 75.2 µM (inactive) | > 100 µM (inactive) | > 100 µM (inactive) | > 100 µM (inactive) | 40.9 µM (inactive) | 23.7 µM (inactive) | > 100 µM (inactive) | > 100 µM (inactive) | 61.9 µM (inactive) | > 100 µM (inactive) | > 100 | 41.9 µM (inactive) | > 100 µM (inactive) |
| CC[C@@]1(O)C(=O)OCc2c1cc1n(c2=O)Cc2cc3ccccc3nc2-1 [CAMPTOTHECIN] | 0.0181 µM (active) | < 0.0116 µM (active) | 0.0158 µM (active) | 0.0303 µM (active) | 0.0322 µM (active) | 0.209 µM (active) | 0.014 µM (active) | 0.0388 µM (active) | 0.0272 µM (active) | 0.228 µM (active) | 0.938 µM (active) | 0.0179 µM (active) | 0.184 µM (active) | 0.286 µM (active) | < 0.01 µM (active) | 0.0256 µM (active) | 0.0543 µM (active) | 0.152 | 0.0225 µM (active) | 0.0116 µM (active) |
| COc1cc2cc(C(=O)N3CC(COS(C)(=O)=O)c4c3cc(N)c3ccccc43)[nH]c2c(OC)c1OC (stereo not given) | 0.0146 µM (active) | < 0.01 µM (active) | < 0.01 µM (active) | 0.0141 µM (active) | 0.0219 µM (active) | < 0.0376 µM (active) | 0.0221 µM (active) | 0.0136 µM (active) | < 0.01 µM (active) | 0.0266 µM (active) | < 0.01 µM (active) | 0.0469 µM (active) | 0.0228 µM (active) | 0.0244 µM (active) | 0.0154 µM (active) | 0.0177 µM (active) | 0.0209 µM (active) | < 0.0206 | 0.0385 µM (active) | 0.0191 µM (active) |
| COC(=O)C1(C(=O)OC)CC2=C(S(=O)(=O)c3ccccc3)C[C@H](S(=O)(=O)c3ccccc3)[C@H]2C1 | > 100 µM (inactive) | > 100 µM (inactive) | 39.6 µM (inactive) | > 100 µM (inactive) | > 100 µM (inactive) | > 100 µM (inactive) | > 100 µM (inactive) | > 100 µM (inactive) | 82.8 µM (inactive) | > 100 µM (inactive) | 27.4 µM (inactive) | > 100 µM (inactive) | 19.9 µM (inactive) | 62.4 µM (inactive) | > 100 µM (inactive) | 13.8 µM (inactive) | > 100 µM (inactive) | 35.3 | 30.3 µM (inactive) | 78.9 µM (inactive) |
| CC(C)(C)NCCC(O)c1cc(C(F)(F)F)nc2c(C(F)(F)F)cccc12 (stereo not given) | 4.38 µM (inactive) | 8.3 µM (inactive) | 4.83 µM (inactive) | 0.502 µM (active) | 15 µM (inactive) | 12.3 µM (inactive) | 7.71 µM (inactive) | 7.53 µM (inactive) | 12.5 µM (inactive) | 15.7 µM (inactive) | 9.4 µM (inactive) | 17.3 µM (inactive) | 10.3 µM (inactive) | 10.7 µM (inactive) | 2.38 µM (inactive) | 6.53 µM (inactive) | 13.5 µM (inactive) | 6.41 | 14.3 µM (inactive) | 4.67 µM (inactive) |
| Cc1ccc([S+](c2ccccc2)c2cc(C)ccc2C)cc1.O=C(OC(C(=O)[O-])C(OC(=O)c1ccccc1)C(=O)O)c1ccccc1 (stereo not given) | 8.87 µM (inactive) | 22.9 µM (inactive) | 10.7 µM (inactive) | 38 µM (inactive) | 39.2 µM (inactive) | 46 µM (inactive) | 17.7 µM (inactive) | 6.7 µM (inactive) | 3.85 µM (inactive) | 17.6 µM (inactive) | 16.9 µM (inactive) | 15.4 µM (inactive) | 10.7 µM (inactive) | 4.26 µM (inactive) | 34.2 µM (inactive) | 34 µM (inactive) | 1.96 µM (inactive) | > 100 | 6.98 µM (inactive) | 21.5 µM (inactive) |
| COC(=O)/C=C\C(C#N)(C#N)/N=C/c1sccc1C | 15 µM (inactive) | 1.87 µM (inactive) | 16.4 µM (inactive) | 1.77 µM (inactive) | 14.8 µM (inactive) | 4.53 µM (inactive) | 8.59 µM (inactive) | 2.47 µM (inactive) | 1.55 µM (inactive) | 4.88 µM (inactive) | 0.589 µM (active) | 3.33 µM (inactive) | 15 µM (inactive) | 1.22 µM (inactive) | 7.53 µM (inactive) | 2 µM (inactive) | 11.1 µM (inactive) | 1.96 | 2.62 µM (inactive) | 14.7 µM (inactive) |
| O=[N+]([O-])c1cccc2nc3ccccc3c(NCCCCCNc3c4ccccc4nc4cccc([N+](=O)[O-])c34)c12 | 0.0366 µM (active) | 0.0162 µM (active) | 0.0296 µM (active) | 0.134 µM (active) | 0.111 µM (active) | 0.153 µM (active) | 0.0151 µM (active) | 0.0492 µM (active) | 0.0895 µM (active) | 0.171 µM (active) | 0.0269 µM (active) | 0.245 µM (active) | 0.202 µM (active) | 0.0246 µM (active) | 0.0211 µM (active) | 0.0302 µM (active) | 0.139 µM (active) | 0.0171 | 0.179 µM (active) | 0.0579 µM (active) |
| COc1ccc2oc(C(=O)N3CC(CCl)c4ccc(N)cc43)cc2c1 (stereo not given) | 0.303 µM (active) | 0.147 µM (active) | 0.203 µM (active) | 0.194 µM (active) | 0.296 µM (active) | 0.286 µM (active) | 0.869 µM (active) | 0.279 µM (active) | 0.176 µM (active) | 0.42 µM (active) | 0.826 µM (active) | 1.16 µM (inactive) | 0.213 µM (active) | 0.284 µM (active) | 0.247 µM (active) | 0.249 µM (active) | 0.596 µM (active) | 0.238 | 0.31 µM (active) | 0.995 µM (active) |
| C=CC[C@@]1(OC(C)=O)C(=O)C(=O)OC1C1COC(C)(C)O1 (stereo not given in full) | 24.1 µM (inactive) | 16.6 µM (inactive) | 17.9 µM (inactive) | 17.6 µM (inactive) | 21.9 µM (inactive) | 18.6 µM (inactive) | 17.6 µM (inactive) | 20.1 µM (inactive) | 16.6 µM (inactive) | 18.8 µM (inactive) | 15.8 µM (inactive) | 35.3 µM (inactive) | 18.6 µM (inactive) | 12.9 µM (inactive) | 24.2 µM (inactive) | 16.3 µM (inactive) | 16.3 µM (inactive) | 15 | 16 µM (inactive) | 49.4 µM (inactive) |
| O=C(O)c1c(Br)c(Br)c(Br)c(Br)c1C1c2ccc(O)cc2Oc2cc(O)ccc21 | > 100 µM (inactive) | > 100 µM (inactive) | > 100 µM (inactive) | 33 µM (inactive) | > 100 µM (inactive) | > 100 µM (inactive) | > 100 µM (inactive) | > 100 µM (inactive) | > 100 µM (inactive) | > 100 µM (inactive) | > 100 µM (inactive) | > 100 µM (inactive) | > 100 µM (inactive) | > 100 µM (inactive) | > 100 µM (inactive) | > 100 µM (inactive) | > 100 µM (inactive) | > 100 | > 100 µM (inactive) | > 100 µM (inactive) |
| CN(C)C(=S)SN(C)C(=O)Nc1ccccc1 | 23.4 µM (inactive) | 47.2 µM (inactive) | 1.82 µM (inactive) | 57.7 µM (inactive) | 3.9 µM (inactive) | 5.06 µM (inactive) | 41.2 µM (inactive) | 35.3 µM (inactive) | 3.28 µM (inactive) | 12.2 µM (inactive) | 38.9 µM (inactive) | 45.8 µM (inactive) | 26 µM (inactive) | 4.48 µM (inactive) | 63 µM (inactive) | 1.18 µM (inactive) | 46.1 µM (inactive) | 22.6 | 1.26 µM (inactive) | > 65.9 µM (inactive) |
| CN1CCC23c4c5ccc(Oc6nnnn6-c6ccccc6)c4OC2c2[nH]c4ccccc4c2CC3(O)C1C5 (stereo not given) | 3.96 µM (inactive) | 1.74 µM (inactive) | 1.85 µM (inactive) | 1.75 µM (inactive) | 2.4 µM (inactive) | 2.54 µM (inactive) | 2.75 µM (inactive) | 2.86 µM (inactive) | 2.29 µM (inactive) | 2.1 µM (inactive) | 1.81 µM (inactive) | 10.8 µM (inactive) | 8.83 µM (inactive) | 2.29 µM (inactive) | 7.16 µM (inactive) | 2.28 µM (inactive) | 1.83 µM (inactive) | 2.43 | 6.71 µM (inactive) | 3.24 µM (inactive) |
